According to publication PMC12340956, “Tranylcypromine-Based LSD1 Inhibitors as Useful Agents to Reduce Viability of” (ACS Infectious Diseases, 2025):
Where two headings read alike, the source gives them in different places.

Legend:
[1] = test system: newly transformed schistosomula (NTS); experiment: NTS viability phenotypic screening, 72 h; conditions: for IC50: Schistosoma mansoni, read-out: IC50 (NTS viability)
Experimental: For NTS and adult worms, transparent flat-bottom 96- and 24-well plates were used, respectively (Sarstedt, Switzerland). For juvenile worms, 48-well plates were used with 3–6 worms per plate and RPMI medium with 5% FCS and 1% penicillin/streptomycin. Compounds were initially tested at 20 and 10 μM in triplicate on NTS and repeated once; each well contained 30–40 NTS. Phenotypic reference points such as motility, morphology, and granularity were used to score incubated parasites’ overall viability (scores from 0 to 3). […] Identified hits from the NTS screening were tested on adult worms. […] The experiment was conducted in duplicate and repeated; standard deviations were calculated from two wells. […] For all in vitro assays, negative controls (DMSO at the highest tested concentration) were included.

adult worms [2] = experiment: Adult worm viability phenotypic assay, 72 h; conditions: Schistosoma mansoni, read-out: IC50 (adult worm viability)
adult worms [3] = experiment: Pairing and egg laying of adult worms; format: cell-based, Schistosoma mansoni; conditions: for eggs' number: 20 μM; for effect on worm pairing: adult worms
Experimental: Selected compounds 2, 15, 18, and 19 were tested on adult worms to evaluate their effects on pairing and egg laying.

[4] = target: T1, human LSD1-CoREST complex (Homo sapiens, UniProt O60341); experiment: HRP-coupled LSD1 inhibition assay; format: biochemical; conditions: 10 min preincubation; for IC50: read-out: IC50 (hLSD1 direct inhibition)
T1 construct: made in house
Experimental: Protein expression, thermal stability, and inhibition of human LSD1-CoREST were performed using established protocols. […] The reaction was initiated by adding an equal volume of the substrate solution to the enzyme–inhibitor mixture, and resorufin fluorescence (excitation at 530–570 nm and emission at 580–590 nm) was detected with a Clariostar plate reader.

[5] = MTT cytotoxicity in MRC-5 cells; format: cell-based; conditions: human, MRC-5 lung diploid fibroblast cells; for viability at 72 h, 5 µM / viability at 72 h, 10 µM / viability at 72 h, 25 µM / viability at 72 h, 50 µM: read-out: percentage of viability, 72 h; for IC50 at 72 h: read-out: IC50 (cell viability)
Experimental: (§1) The MTT method was used to evaluate cell viability after 72 h of treatment.
(§2) Human commercial lung diploid fibroblasts (MRC-5), and diploid retinal epithelium cells (RPE) were obtained from the American Type Culture Collection (ATCC) and kindly provided by Dr Francesca Degrassi (CNR IBPM) and maintained in minimal essential medium or DMEM-F12 medium supplemented with fetal calf serum, antibiotics, and nonessential amino acids. Cells were grown at 37 °C, in a humidified atmosphere, with 5% CO2. For experiments, cells were seeded in 200 μL of complete in each well of a 96-well microtiter plate. After 24 h, compounds were added at 5, 10, 25, and 50 μM for 72 h in sextuplicate. MTT was added (0.5 mg/mL), incubated for 4 h at 37 °C, and dissolved in 200 μL of isopropyl alcohol. Absorbance was measured at 570 nm (ELISA reader, DASIT), and cell viability was calculated as viability=(ODoftreatedcells/ODofcontrolcells)×100

[6] = target: T1, human LSD1-CoREST complex; experiment: ThermoFAD thermal stability assay; format: binding; conditions: for ΔTm: LSD1-CoREST thermal stability
Experimental: Compounds 14–22 were tested against the human LSD1-CoREST complex to determine their inhibitory activity. […] ThermoFAD assays were then performed to assess the impact of 14–22 on the thermal stability (ΔT m values, Table ) of the LSD1-CoREST complex. The most significant shifts in Tm values corresponded to the strongest binders. […] Compound 22 was not tested, considering its previous negative results.
Protein expression, thermal stability, and inhibition of human LSD1-CoREST were performed using established protocols. […] LSD1-CoREST (0.4 μM) was preincubated with the inhibitor at 25 °C for 10 min in the presence of 5% DMSO. The reaction was initiated by adding an equal volume of the substrate solution to the enzyme–inhibitor mixture, and resorufin fluorescence (excitation at 530–570 nm and emission at 580–590 nm) was detected with a Clariostar plate reader.

NTS = experiment: Speed-of-action assay in NTS; format: cell-based, Schistosoma mansoni; conditions: for Percentage of effect: NTS; for IC50: Schistosoma mansoni, read-out: IC50 (speed of action, NTS)
Excerpt: (§3) To better characterize a selection of our LSD1i in vitro, we assessed the onset of their action, defined as the time required for an observable antischistosomal effect. […] For detailed percentages of activity at each time point, refer to the Supporting Information (Tables S2 and S3 in Supporting Information).

[7] = MTT cytotoxicity in RPE cells; format: cell-based; conditions: human, retinal pigment epithelial (RPE) cells; for viability at 72 h, 5 µM / viability at 72 h, 10 µM / viability at 72 h, 25 µM / viability at 72 h, 50 µM: read-out: percentage of viability, 72 h; for IC50 at 72 h: read-out: IC50 (cell viability)
Experimental: as §1, §2

[8] = test system: S. mansoni juvenile forms; experiment: Speed-of-action assay in juvenile forms; format: cell-based, Schistosoma mansoni; conditions: for IC50: Schistosoma mansoni, read-out: IC50 (speed of action, juvenile forms); for Percentage of effect: juvenile forms
Excerpt: as §3

[9] = target: T1, human LSD1-CoREST complex; experiment: Spectrophotometric analysis of flavin cofactor bleaching; format: biochemical

## CC#Cc1ccc(C(=O)Nc2ccc(C3CC3N)cc2)cc1.Cl (stereo not shown) [Compound 18, N-(4-(2-Aminocyclopropyl)phenyl)-4-(prop-1-yn-1-yl)benzamide Hydrochloride]
[1]; 1 μM
  Percentage of reduction of NTS viability, 72 h: 22.6 ± 1.9%
[1]; 10 μM
  Percentage of reduction of NTS viability, 72 h: 95.8 ± 4.2%
[1]; 20 μM
  Percentage of reduction of NTS viability, 72 h: 100 ± 0.0%
[1]
  IC50: 1.76 µM
Adult worms [2]
  IC50: > 10 µM
Adult worms [3]; 4 h
  eggs' number: 0
Adult worms [3]; 8 h
  eggs' number: 0
Adult worms [3]; 24 h
  eggs' number: 0
Adult worms [3]; 48 h
  eggs' number: 0
Adult worms [3]; 72 h
  eggs' number: 2
Adult worms [3]
  effect on worm pairing: no impact on worm pairing
[4]
  IC50: 0.13 ± 0.02 µM
[5]
  viability at 72 h, 5 µM: 111 ± 10%
  viability at 72 h, 10 µM: 75 ± 15%
  viability at 72 h, 25 µM: 98 ± 14%
  viability at 72 h, 50 µM: 75 ± 12%
  IC50 at 72 h: > 100 µM
[6]
  ΔTm: +8 °C
NTS; 4 h, 10 μM
  Percentage of effect: 26.92%
NTS; 4 h, 20 μM
  Percentage of effect: 30.77%
NTS; 24 h, 10 μM
  Percentage of effect: 51.79%
NTS; 24 h, 20 μM
  Percentage of effect: 75%
NTS; 48 h, 10 μM
  Percentage of effect: 81.63%
NTS; 48 h, 20 μM
  Percentage of effect: 87.76%
NTS; 72 h, 20 μM
  Percentage of effect: 100%
NTS; 4 h
  IC50: > 20 µM
NTS; 24 h
  IC50: 6.9 µM
NTS; 48 h
  IC50: 4.4 µM
NTS; 72 h
  IC50: 2.4 µM
[7]
  viability at 72 h, 5 µM: 82 ± 21%
  viability at 72 h, 10 µM: 86 ± 36%
  viability at 72 h, 25 µM: 104 ± 20%
  viability at 72 h, 50 µM: 95 ± 2%
  IC50 at 72 h: > 100 µM
[8]; 4 h
  IC50: > 20 µM
[8]; 24 h
  IC50: > 20 µM
[8]; 48 h
  IC50: > 20 µM
[8]; 72 h
  IC50: 3.8 µM
[8]; 4 h, 1 μM
  Percentage of effect: 20%
[8]; 4 h, 10 μM
  Percentage of effect: 20%
[8]; 4 h, 20 μM
  Percentage of effect: 43.64%
[8]; 24 h, 1 μM
  Percentage of effect: 24.14%
[8]; 24 h, 10 μM
  Percentage of effect: 31.03%
[8]; 24 h, 20 μM
  Percentage of effect: 46.15%
[8]; 48 h, 1 μM
  Percentage of effect: 34.62%
[8]; 48 h, 10 μM
  Percentage of effect: 42.31%
[8]; 48 h, 20 μM
  Percentage of effect: 47.92%
[8]; 72 h, 1 μM
  Percentage of effect: 42.81%
[8]; 72 h, 10 μM
  Percentage of effect: 44.77%
[8]; 72 h, 20 μM
  Percentage of effect: 70.83%

## Cl.NC1CC1c1ccc(NC(=O)c2ccc(C#CC3CC3)cc2)cc1 (stereo not shown) [Compound 19, N-(4-(2-Aminocyclopropyl)phenyl)-4-(cyclopropylethynyl)benzamide Hydrochloride]
[1]; 1 μM
  Percentage of reduction of NTS viability, 72 h: 22.6 ± 1.9%
[1]; 10 μM
  Percentage of reduction of NTS viability, 72 h: 100 ± 0.0%
[1]; 20 μM
  Percentage of reduction of NTS viability, 72 h: 100 ± 0.0%
[1]
  IC50: 1.27 µM
Adult worms [2]
  IC50: > 10 µM
Adult worms [3]; 4 h
  eggs' number: 0
Adult worms [3]; 8 h
  eggs' number: 0
Adult worms [3]; 24 h
  eggs' number: 0
Adult worms [3]; 48 h
  eggs' number: 0
Adult worms [3]; 72 h
  eggs' number: 5
Adult worms [3]
  effect on worm pairing: no impact on worm pairing
[4]
  IC50: 0.02 ± 0.001 µM
[5]
  viability at 72 h, 5 µM: 98 ± 20%
  viability at 72 h, 10 µM: 88 ± 18%
  viability at 72 h, 25 µM: 85 ± 8%
  viability at 72 h, 50 µM: 85 ± 35%
  IC50 at 72 h: > 100 µM
[6]
  ΔTm: +8 °C
NTS; 4 h, 10 μM
  Percentage of effect: 30.77%
NTS; 4 h, 20 μM
  Percentage of effect: 38.46%
NTS; 24 h, 10 μM
  Percentage of effect: 48.21%
NTS; 24 h, 20 μM
  Percentage of effect: 78.57%
NTS; 48 h, 10 μM
  Percentage of effect: 87.76%
NTS; 48 h, 20 μM
  Percentage of effect: 100%
NTS; 72 h, 10 μM
  Percentage of effect: 93.88%
NTS; 72 h, 20 μM
  Percentage of effect: 100%
NTS; 4 h
  IC50: > 20 µM
NTS; 24 h
  IC50: 10.4 µM
NTS; 48 h
  IC50: 8.3 µM
NTS; 72 h
  IC50: 7.5 µM
[7]
  viability at 72 h, 5 µM: 92 ± 26%
  viability at 72 h, 10 µM: 89 ± 35%
  viability at 72 h, 25 µM: 98 ± 21%
  viability at 72 h, 50 µM: 103 ± 20%
  IC50 at 72 h: > 100 µM
[8]; 4 h
  IC50: > 20 µM
[8]; 24 h
  IC50: > 20 µM
[8]; 48 h
  IC50: > 20 µM
[8]; 72 h
  IC50: 2.7 µM
[8]; 4 h, 1 μM
  Percentage of effect: 20%
[8]; 4 h, 10 μM
  Percentage of effect: 20%
[8]; 4 h, 20 μM
  Percentage of effect: 41.82%
[8]; 24 h, 1 μM
  Percentage of effect: 27.59%
[8]; 24 h, 10 μM
  Percentage of effect: 34.48%
[8]; 24 h, 20 μM
  Percentage of effect: 40.38%
[8]; 48 h, 1 μM
  Percentage of effect: 36.54%
[8]; 48 h, 10 μM
  Percentage of effect: 46.15%
[8]; 48 h, 20 μM
  Percentage of effect: 47.92%
[8]; 72 h, 1 μM
  Percentage of effect: 43.03%
[8]; 72 h, 10 μM
  Percentage of effect: 46.73%
[8]; 72 h, 20 μM
  Percentage of effect: 81.25%

## CC#Cc1ccc(C(=O)Nc2cccc(C3CC3N)c2)cc1.Cl (stereo not shown) [Compound 21, N-(3-(2-Aminocyclopropyl)phenyl)-4-(prop-1-yn-1-yl)benzamide Hydrochloride]
[4]
  IC50 (hLSD1 direct inhibition): inactive
  IC50: > 100 µM
[9]
  bleaching of the flavin cofactor: no bleaching
[6]
  thermal shift compared to the control: no thermal shift
  ΔTm: 0 °C

## Cl.NC1CC1c1cccc(NC(=O)c2ccc(C#CC3CC3)cc2)c1 (stereo not shown) [Compound 22, N-(3-(2-Aminocyclopropyl)phenyl)-4-(cyclopropylethynyl)benzamide Hydrochloride]
[9]
  bleaching of the flavin cofactor: no bleaching
[6]
  thermal shift compared to the control: no thermal shift
  ΔTm: 0 °C
